Measurements from patent US20120202822A1, “COMBINATION” (priority 2009, published 2012).

What was measured:
Test in all cases: Cell Growth Inhibition Assay (Cell Titer Glo, 3 days)
Assay type in all cases: cell-based
12R8-1 = details: Homo sapiens, 72 h, 12R8-1 (Compound A resistant clone), read-out: IC50, Single Agent (mean ± std)
Procedure: (§1) Melanoma A375 PF11 line was derived from A375 (ATCC). 12R5-1, 12R5-3, 12R8-1, 12R8-3, 16R5-2, 16R6-3 and 16R6-4 are single cell clones derived from mixed populations of A375 PF11 cells that were selected to grow in Compound A to concentrations of 1200 and 1600 nM. All lines were cultured in RPMI 1640 medium containing 10% fetal bovine serum (FBS).
(§2) All cells were cultured for a minimum of 72 hours prior to cell plating. Cells were assayed in a 96-well tissue culture plate (NUNC 136102) of RPMI medium containing 10% FBS for all cells at 1,000 cells per well. Approximately 24 hours after plating, cells were exposed to ten, three-fold serial dilutions of compound or the combination of the two agents at a constant molar to molar ratio of 1:10 Compound A to Compound B in RPMI media containing 10% FBS. Cells were incubated in the presence of compounds for 3 days. ATP levels were determined by adding Cell Titer Glo® (Promega) according to the manufacturer's protocol. Briefly, Cell Titer Glo® was added each plate, incubated for 30 minutes then luminescent signal was read on the SpectraMax L plate reader with a 0.5 sec integration time.
(§3) Inhibition of cell growth was estimated after treatment with compound or combination of compounds for three days and comparing the signal to cells treated with vehicle (DMSO). Cell growth was calculated relative to vehicle (DMSO) treated control wells. Concentration of compound that inhibits 50% of control cell growth (IC50) was interpolated when y=50% of the vehicle control using nonlinear regression with the equation, y=(A+(B−A)/(1+(C/x)̂D))), where A is the minimum response (ymin), B is the maximum response (ymax), C is the inflection point of the curve (EC50) and D is the Hill coefficient.
(§4) Combination effects on potency were evaluated using Combination Index (CI) which was calculated with the back-interpolated IC50 values and the mutually non-exclusive equation derived by Chou and Talalay (Chou T C, Talalay P. Quantitative analysis of dose-effect relationships: the combined effects of multiple drugs or enzyme inhibitors. Adv Enzyme Regul 1984; 22:27-55.) A detailed description of the CI is found above. In general, a CI value <0.9, between 0.9 and 1.1, or >1.1 indicates synergy, additivity and antagonism, respectively. In general, the smaller the CI number, the greater is the strength of synergy.
(§5) The combination effects on the response scale were quantified by Excess Over Highest Single Agent (EOHSA) based on the concept of nonlinear blending as described in detail by Peterson and Novick (2007) and Peterson (2010) [Peterson J J, Novick S J. J Recept Signal Transduct Res 2007; 27(2-3):125-46, Peterson J. Frontiers of Bioscience S2, 483-503. 2010] EOHSA values are defined as increases in improvement (here, in ‘percentage points’ (ppts) difference) produced by the combination over the best single agent at its component dose level for the combination. Details on the calculation of EOHSA can be found above. For single agent and combination treatments, cells were exposed to compounds at a fixed-dose-ratio, and dose response curves were fit to the experimental data and analyzed using regression models. At specified total dose levels of IC50 along the dose response curve, the dose combination (corresponding to IC50) was determined for making EOHSA statistical inferences. More specifically, for a combination drug experiment involving drug 1 at dose d1 and drug 2 at dose d2, (i.e., total dose equals d1+d2) is said to have a positive EOHSA if the mean response at the combination is better than the mean response to drug 1 at dose d1 […] drug 2 at dose d2.

16R6-4 = details: Homo sapiens, 72 h, 16R6-4 (Compound A resistant clone), read-out: IC50, Single Agent (mean ± std)
Procedure: as §1, §2, §3, §4, §5

12R8-3 = details: Homo sapiens, 72 h, 12R8-3 (Compound A resistant clone), read-out: IC50, Single Agent (mean ± std)
Procedure: as §1, §2, §3, §4, §5

16R5-2 = details: Homo sapiens, 72 h, 16R5-2 (Compound A resistant clone), read-out: IC50, Single Agent (mean ± std)
Procedure: as §1, §2, §3, §4, §5

16R6-3 = details: Homo sapiens, 72 h, 16R6-3 (Compound A resistant clone), read-out: IC50, Single Agent (mean ± std)
Procedure: as §1, §2, §3, §4, §5

12R5-3 = details: Homo sapiens, 72 h, 12R5-3 (Compound A resistant clone), read-out: IC50, Single Agent (mean ± std)
Procedure: as §1, §2, §3, §4, §5

12R5-1 = details: Homo sapiens, 72 h, 12R5-1 (Compound A resistant clone), read-out: IC50, Single Agent (mean ± std)
Procedure: as §1, §2, §3, §4, §5

A375PF11 = details: Homo sapiens, A375P-F11, 72 h, A375PF11 (BRAF_V600E), read-out: IC50, Single Agent (mean ± std)
Procedure: as §1, §2, §3, §4, §5

IC50 (A375PF11) [nM]	SMILES	IC50 (12R8-1) [nM]	IC50 (16R6-4) [nM]	IC50 (12R8-3) [nM]	IC50 (16R5-2) [nM]	IC50 (16R6-3) [nM]	IC50 (12R5-3) [nM]	IC50 (12R5-1) [nM]
59	CC(C)(C)c1nc(-c2cccc(NS(=O)(=O)c3c(F)cccc3F)c2F)c(-c2ccnc(N)n2)s1 [Compound A, N-{3-[5-(2-amino-4-pyrimidinyl)-2-(1,1-dimethylethyl)-1,3-thiazol-4-yl]-2-fluorophenyl}-2,6-difluorobenzenesulfonamide]	> 10000	> 10000	> 10000	> 10000	> 10000	> 10000	> 10000
48	COc1ncc(-c2ccc3nccc(-c4ccnnc4)c3c2)cc1NS(=O)(=O)c1ccc(F)cc1F [Compound B, 2,4-difluoro-N-{2-(methyloxy)-5-[4-(4-pyridazinyl)-6-quinolinyl]-3-pyridinyl}benzenesulfonamide]	103 ± 16	61 ± 10	129 ± 24	41 ± 18	80 ± 17	88 ± 2	212 ± 38
